The values below come from patent publication US10294202B2, “Pyrrolidinones as herbicides” (FMC Corporation, priority 2013, dated 2019).

Experiment in all cases: Test D pre-/postemergence herbicide test
Test [1] relates to ryegrass, Italian. The format is in vivo, Lolium multiflorum. The note with it: for Plant response rating: Postemergence, Ryegrass, Italian, scale 0 to 100; for Plant response rating, Ryegrass, Italian: Preemergence, scale 0 to 100 (0 no effect, 100 complete control). From the text:
(§1) Seeds of plant species selected from bluegrass (annual bluegrass, Poa annua), blackgrass (Alopecurus myosuroides), canarygrass (littleseed canarygrass, Phalaris minor), chickweed (common chickweed, Stellaria media), galium (catchweed bedstraw, Galium aparine), bromegrass, downy (downy bromegrass, Bromus tectorum), field poppy (Papaver rhoeas), field violet (Viola arvensis), foxtail, green (green foxtail, Setaria viridis), deadnettle (henbit deadnettle, Lamium amplexicaule), ryegrass, Italian (Italian ryegrass, Lolium multiflorum), kochia (Kochia scoparia), lambsquarters (Chenopodium album), oilseed rape (Brassica napus), pigweed (Amaranthus retroflexus), chamomile (scentless chamomile, Matricaria inodora), Russian thistle (Salsola kali), speedwell (bird's-eye speedwell, Veronica persica), barley, spring (spring barley, Hordeum vulgare), wheat, spring (spring wheat, Triticum aestivum), buckwheat, wild (wild buckwheat, Polygonum convolvulus), mustard, wild (wild mustard, Sinapis arvensis), oat, wild (wild oat, Avena fatua), radish, wild (wild radish, Raphanus raphanistrum), […]), barley, winter (winter barley, Hordeum vulgare), and wheat, winter (winter wheat, Triticum aestivum) were planted into a silt loam soil and treated preemergence with test chemicals formulated in a non-phytotoxic solvent mixture which included a surfactant. At the same time, these species were planted in pots containing Redi-Earth® planting medium (Scotts Company, 14111 Scottslawn Road, Marysville, Ohio 43041) comprising spaghnum peat moss, vermiculite, wetting agent and starter nutrients and treated with postemergence applications of the test chemicals formulated in the same manner. Plants ranged in height from 2 to 18 cm (1- to 4-leaf stage). Treated plants and controls were maintained in a controlled growth environment for 7 to 21 days after which time all species were compared to controls and visually evaluated. Plant response ratings, summarized in Table D, are based on a scale of 0 to 100 where 0 is no effect and 100 is complete control. A dash (-) response means no test result.

The subject of test [2] is radish, wild. Format: in vivo, Raphanus raphanistrum. The following applies: for Plant response rating: Postemergence, Radish, Wild, scale 0 to 100; for Plant response rating, Radish, Wild: Preemergence, scale 0 to 100 (0 no effect, 100 complete control).
Excerpt: as §1

The subject of test [3] is canarygrass. Format: in vivo, Phalaris minor. The following applies: for Plant response rating: Canarygrass, scale 0 to 100; for Plant response rating, Canarygrass: scale 0 to 100 (0 no effect, 100 complete control).
Excerpt: as §1

In the case of `O=C1NCC(c2ccc(F)c(F)c2)C1C(=O)Nc1ccccc1C(F)(F)F` (racemic) [Compound 6], the Plant response rating in test [1] (16 g ai/ha), in test [1] (31 g ai/ha), in test [1] (62 g ai/ha), in test [1] (125 g ai/ha), in test [1] (250 g ai/ha) and in test [2] (16 g ai/ha) was 0 each time. The Plant response rating in test [2] (31 g ai/ha) came out at 0; in test [2] (62 g ai/ha) it was 0; in test [2] (125 g ai/ha) it was 0; in test [2] (250 g ai/ha) it was 10; in test [3] (Postemergence, 16 g ai/ha), 0; in test [3] (Postemergence, 31 g ai/ha), 0. In addition, the Plant response rating in test [3] (Postemergence, 62 g ai/ha) was determined as 0; in test [3] (Postemergence, 125 g ai/ha) it was 0; in test [3] (Postemergence, 250 g ai/ha) it was 0; in test [3] (Preemergence, 125 g ai/ha), 20; in test [3] (Preemergence, 250 g ai/ha), 20. Moreover, the “Plant response rating, Ryegrass, Italian” value in test [1] (62 g ai/ha), in test [1] (125 g ai/ha), in test [1] (16 g ai/ha), in test [1] (31 g ai/ha) and in test [1] (250 g ai/ha) was 0 each time. Also, in test [2] (16 g ai/ha), the “Plant response rating, Radish, Wild” value is given as 0. Besides, the “Plant response rating, Canarygrass” value is given as 10 in test [3] (Preemergence, 62 g ai/ha); 0 in test [3] (Preemergence, 16 g ai/ha); 0 in test [3] (Preemergence, 31 g ai/ha).

Consider `O=C1NCC(c2ccc(F)c(C(F)(F)F)c2)C1C(=O)Nc1cccc(F)c1F` (racemic) [Compound 77], for which the “Plant response rating, Ryegrass, Italian” value is listed as 15 in test [1] (62 g ai/ha), 25 in test [1] (125 g ai/ha), 15 in test [1] (31 g ai/ha) and 35 in test [1] (250 g ai/ha). The “Plant response rating, Radish, Wild” value in test [2] (62 g ai/ha) worked out at 10; in test [2] (125 g ai/ha), 25; in test [2] (31 g ai/ha), 0; in test [2] (250 g ai/ha), 30. The “Plant response rating, Canarygrass” value in test [3] (Preemergence, 62 g ai/ha) is given as 45; in test [3] (Preemergence, 31 g ai/ha) it was 25. Also, the Plant response rating was 65 in test [3] (Preemergence, 125 g ai/ha) and 85 in test [3] (Preemergence, 250 g ai/ha).

Turning to `O=C1NCC(c2ccc(C(F)(F)F)cc2)C1C(=O)Nc1cccc(F)c1F` (racemic) [Compound 202], the Plant response rating was 0 in test [1] (31 g ai/ha); 0 in test [1] (62 g ai/ha); 10 in test [1] (125 g ai/ha); 15 in test [1] (250 g ai/ha); 50 in test [2] (31 g ai/ha); 70 in test [2] (62 g ai/ha). Moreover, the Plant response rating in test [2] (125 g ai/ha) came to 75; in test [2] (250 g ai/ha), 70; in test [3] (Postemergence, 31 g ai/ha) it was 0; in test [3] (Postemergence, 62 g ai/ha), 0; in test [3] (Postemergence, 125 g ai/ha), 0; in test [3] (Postemergence, 250 g ai/ha), 0. Besides, the Plant response rating in test [3] (Preemergence, 125 g ai/ha) is 60; in test [3] (Preemergence, 250 g ai/ha), 75. Also, the “Plant response rating, Ryegrass, Italian” value in test [1] (62 g ai/ha) came to 5; in test [1] (125 g ai/ha), 5; in test [1] (31 g ai/ha) it was 0; in test [1] (250 g ai/ha) it was 10. Further, the “Plant response rating, Radish, Wild” value is listed as 0 in test [2] (62 g ai/ha), 0 in test [2] (125 g ai/ha), 0 in test [2] (31 g ai/ha) and 80 in test [2] (250 g ai/ha). Moreover, the “Plant response rating, Canarygrass” value in test [3] (Preemergence, 62 g ai/ha) stood at 10; in test [3] (Preemergence, 31 g ai/ha) it was 5.

For the molecule `O=C1NCC(c2ccc(C(F)(F)F)cc2)C1C(=O)Nc1cccc(F)c1F` (centres unmarked) [Compound 80, N-(2,3-difluorophenyl)-2-oxo-4-[4-(trifluoromethyl)phenyl]-3-pyrrolidinecarboxamide], the Plant response rating stood at 0 in test [1] (31 g ai/ha); 0 in test [1] (62 g ai/ha); 0 in test [1] (125 g ai/ha); 0 in test [1] (250 g ai/ha); 50 in test [2] (31 g ai/ha); 70 in test [2] (62 g ai/ha). The Plant response rating in test [2] (125 g ai/ha) is given as 35; in test [2] (250 g ai/ha) it was 60; in test [3] (Postemergence, 31 g ai/ha), 0; in test [3] (Postemergence, 62 g ai/ha), 0; in test [3] (Postemergence, 125 g ai/ha) it was 0; in test [3] (Postemergence, 250 g ai/ha), 0. The Plant response rating in test [3] (Preemergence, 125 g ai/ha) was determined as 10; in test [3] (Preemergence, 250 g ai/ha), 20. For the same molecule, the “Plant response rating, Ryegrass, Italian” value in test [1] (62 g ai/ha) is listed as 5; in test [1] (125 g ai/ha) it was 5; in test [1] (31 g ai/ha), 0; in test [1] (250 g ai/ha) it was 15. The “Plant response rating, Radish, Wild” value in test [2] (62 g ai/ha) is reported as 30; in test [2] (125 g ai/ha) it was 30; in test [2] (31 g ai/ha), 15; in test [2] (250 g ai/ha) it was 70. In addition, the “Plant response rating, Canarygrass” value is recorded as 0 in test [3] (Preemergence, 62 g ai/ha) and 0 in test [3] (Preemergence, 31 g ai/ha).

Regarding `O=C1NC[C@H](c2cccc(C(F)(F)F)c2)[C@H]1C(=O)Nc1ccccc1F` [Compound 204, (3R,4S)—N-(2-fluorophenyl)-2-oxo-4-[3-(trifluoromethyl)phenyl]-3-pyrrolidinecarboxamide], the “Plant response rating, Ryegrass, Italian” value in test [1] (62 g ai/ha) is 15; in test [1] (125 g ai/ha), 45; in test [1] (31 g ai/ha), 5; in test [1] (250 g ai/ha), 60. Moreover, the “Plant response rating, Radish, Wild” value in test [2] (62 g ai/ha), in test [2] (125 g ai/ha), in test [2] (31 g ai/ha) and in test [2] (250 g ai/ha) was 0 throughout. In addition, the “Plant response rating, Canarygrass” value in test [3] (Preemergence, 62 g ai/ha) was determined as 10; in test [3] (Preemergence, 125 g ai/ha) it was 10; in test [3] (Preemergence, 31 g ai/ha), 0. The Plant response rating in test [3] (Preemergence, 250 g ai/ha) stood at 75.

As for `O=C1NC[C@H](c2cccc(C(F)(F)F)c2)[C@H]1C(=O)Nc1cccc(F)c1F` [Compound 206], the “Plant response rating, Ryegrass, Italian” value was 30 in test [1] (62 g ai/ha), 55 in test [1] (125 g ai/ha), 35 in test [1] (31 g ai/ha) and 75 in test [1] (250 g ai/ha). Further, the “Plant response rating, Radish, Wild” value in test [2] (62 g ai/ha) is reported as 25; in test [2] (125 g ai/ha), 30; in test [2] (31 g ai/ha), 25; in test [2] (250 g ai/ha), 30. Moreover, the “Plant response rating, Canarygrass” value in test [3] (Preemergence, 62 g ai/ha) worked out at 75; in test [3] (Preemergence, 125 g ai/ha) it was 85; in test [3] (Preemergence, 31 g ai/ha), 55. This molecule came in with a Plant response rating in test [3] (Preemergence, 250 g ai/ha) of 85.

With `O=C1NCC(c2ccc(C(F)(F)F)cc2)C1C(=O)Nc1ccccc1F` (centres unmarked) [Compound 231], the Plant response rating in test [1] (31 g ai/ha) is recorded as 0; in test [1] (62 g ai/ha), 0; in test [1] (125 g ai/ha), 0; in test [1] (250 g ai/ha), 0; in test [2] (31 g ai/ha), 30; in test [2] (62 g ai/ha), 70. For the same molecule, the Plant response rating stood at 75 in test [2] (125 g ai/ha); 70 in test [2] (250 g ai/ha); 0 in test [3] (Postemergence, 31 g ai/ha); 0 in test [3] (Postemergence, 62 g ai/ha); 0 in test [3] (Postemergence, 125 g ai/ha); 0 in test [3] (Postemergence, 250 g ai/ha). In test [3] (Preemergence, 250 g ai/ha), this molecule showed a Plant response rating of 35. Moreover, the “Plant response rating, Ryegrass, Italian” value in test [1] (62 g ai/ha), in test [1] (125 g ai/ha), in test [1] (31 g ai/ha) and in test [1] (250 g ai/ha) was 0 in each case. For the same molecule, the “Plant response rating, Radish, Wild” value in test [2] (62 g ai/ha), in test [2] (125 g ai/ha), in test [2] (31 g ai/ha) and in test [2] (250 g ai/ha) was 0 each time. The “Plant response rating, Canarygrass” value in test [3] (Preemergence, 62 g ai/ha) came to 15; in test [3] (Preemergence, 125 g ai/ha), 20; in test [3] (Preemergence, 31 g ai/ha) it was 0.
